PubChem BioAssay AID1963972 (Molecular Pharmacology Branch, DTP, NCI, 2024)

System: 945468-187-T-J2-PDC spheroids viability
Assay: Anticancer human tumor 945468-187-T-J2-PDC patient-derived rectal carcinoma cell line growth inhibition [PI3K]
Conditions: spheroids with HUVEC and MSC; for IC50: curve of first compound; for viability, T/C: stronger effect = lower value
How it was run: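 Tumor cells were combined with HUVEC and MSCs into spheroids, then dosed with PI3K-inhibitor combinations over half-log ranges capped near clinical Cmax or 10 microM.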

[1] = second compound 0.0316 µM, first compound 0.0316 µM
[2] = second compound 0.0316 µM, first compound 0.1 µM
[3] = second compound 0.1 µM, first compound 0.0316 µM
[4] = second compound 0.1 µM, first compound 0.1 µM
[5] = second compound 0.316 µM, first compound 0.0316 µM
[6] = second compound 0.316 µM, first compound 0.1 µM
[7] = second compound 1 µM, first compound 0.0316 µM
[8] = second compound 1 µM, first compound 0.1 µM
[9] = second compound 3.16 µM, first compound 0.0316 µM
[10] = second compound 3.16 µM, first compound 0.1 µM
[11] = second compound 10 µM, first compound 0.0316 µM
[12] = second compound 10 µM, first compound 0.1 µM
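Note: spheroids exposed to compounds for seven days before reading.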

Q: How did the IC50 (second compound 0.0316 µM) turn out when `CC(=O)c1c(C)c2cnc(Nc3ccc(N4CCNCC4)cn3)nc2n(C2CCCC2)c1=O` + CC(Nc1ncnc2nc[nH]c12)c1cc2cccc(Cl)c2c(=O)n1-c1ccccc1 was run?
A: Its IC50 is over 0.1 µM.

Q: And the IC50 (second compound 0.1 µM)?
A: Its IC50 is over 0.1 µM.

Q: What about the IC50 (second compound 0.316 µM) of the same compound?
A: The IC50 was over 0.1 µM.

Q: What about the IC50 (second compound 1 µM) of the same compound?
A: The IC50 was over 0.1 µM.

Q: What about the IC50 (second compound 3.16 µM) of the same compound?
A: The IC50 was over 0.1 µM.

Q: And the IC50 (second compound 10 µM)?
A: Its IC50 is over 0.1 µM.

Q: And the viability, T/C (second compound 0.0316 µM, first compound 0.000316 µM)?
A: Its viability, T/C is 104%.

Q: What about the viability, T/C (second compound 0.0316 µM, first compound 0.001 µM) of the same compound?
A: The viability, T/C was 80%.

Q: And the viability, T/C (second compound 0.0316 µM, first compound 0.00316 µM)?
A: Its viability, T/C is 101%.

Q: What about the viability, T/C (second compound 0.0316 µM, first compound 0.01 µM) of the same compound?
A: Its viability, T/C is 100%.

Q: What about the viability, T/C [1] of the same compound?
A: The viability, T/C was 90%.

Q: And the viability, T/C [2]?
A: Its viability, T/C is 122%.

Q: What about the viability, T/C (second compound 0.1 µM, first compound 0.000316 µM) of the same compound?
A: Its viability, T/C is 98.9%.

Q: And the viability, T/C (second compound 0.1 µM, first compound 0.001 µM)?
A: Its viability, T/C is 101%.

Q: And the viability, T/C (second compound 0.1 µM, first compound 0.00316 µM)?
A: Its viability, T/C is 89.4%.

Q: What about the viability, T/C (second compound 0.1 µM, first compound 0.01 µM) of the same compound?
A: The viability, T/C was 80.3%.

Q: What about the viability, T/C [3] of the same compound?
A: The viability, T/C was 104%.

Q: What about the viability, T/C [4] of the same compound?
A: The viability, T/C was 101%.

Q: And the viability, T/C (second compound 0.316 µM, first compound 0.000316 µM)?
A: Its viability, T/C is 82.3%.

Q: And the viability, T/C (second compound 0.316 µM, first compound 0.001 µM)?
A: The viability, T/C was 108%.

Q: And the viability, T/C (second compound 0.316 µM, first compound 0.00316 µM)?
A: The viability, T/C was 103%.

Q: And the viability, T/C (second compound 0.316 µM, first compound 0.01 µM)?
A: The viability, T/C was 98.4%.

Q: And the viability, T/C [5]?
A: Its viability, T/C is 113%.

Q: And the viability, T/C [6]?
A: The viability, T/C was 88.7%.

Q: What about the viability, T/C (second compound 1 µM, first compound 0.000316 µM) of the same compound?
A: The viability, T/C was 91.2%.

Q: What about the viability, T/C (second compound 1 µM, first compound 0.001 µM) of the same compound?
A: The viability, T/C was 103%.

Q: What about the viability, T/C (second compound 1 µM, first compound 0.00316 µM) of the same compound?
A: The viability, T/C was 85.4%.

Q: And the viability, T/C (second compound 1 µM, first compound 0.01 µM)?
A: The viability, T/C was 89.8%.

Q: What about the viability, T/C [7] of the same compound?
A: The viability, T/C was 90.7%.

Q: And the viability, T/C [8]?
A: The viability, T/C was 109%.

Q: And the viability, T/C (second compound 3.16 µM, first compound 0.000316 µM)?
A: The viability, T/C was 87.8%.

Q: What about the viability, T/C (second compound 3.16 µM, first compound 0.001 µM) of the same compound?
A: The viability, T/C was 87%.

Q: What about the viability, T/C (second compound 3.16 µM, first compound 0.00316 µM) of the same compound?
A: Its viability, T/C is 102%.

Q: And the viability, T/C (second compound 3.16 µM, first compound 0.01 µM)?
A: Its viability, T/C is 99.5%.

Q: And the viability, T/C [9]?
A: The viability, T/C was 111%.

Q: And the viability, T/C [10]?
A: Its viability, T/C is 118%.

Q: What about the viability, T/C (second compound 10 µM, first compound 0.000316 µM) of the same compound?
A: The viability, T/C was 101%.

Q: And the viability, T/C (second compound 10 µM, first compound 0.001 µM)?
A: The viability, T/C was 100%.

Q: And the viability, T/C (second compound 10 µM, first compound 0.00316 µM)?
A: The viability, T/C was 101%.

Q: And the viability, T/C (second compound 10 µM, first compound 0.01 µM)?
A: Its viability, T/C is 87.9%.

Q: What about the viability, T/C [11] of the same compound?
A: Its viability, T/C is 99.5%.

Q: And the viability, T/C [12]?
A: Its viability, T/C is 121%.

Q: What does the source list for `CNC(=O)c1ccc(N2C(=S)N(c3ccc(C#N)c(C(F)(F)F)c3)C(=O)C2(C)C)cc1F` + CC(Nc1ncnc2nc[nH]c12)c1cc2cccc(Cl)c2c(=O)n1-c1ccccc1?
A: IC50 (second compound 0.0316 µM): > 10 µM; IC50 (second compound 0.1 µM): > 10 µM; IC50 (second compound 0.316 µM): > 10 µM; IC50 (second compound 1 µM): > 10 µM; IC50 (second compound 3.16 µM): > 10 µM; IC50 (second compound 10 µM): > 10 µM; viability, T/C [1]: 111%; viability, T/C [2]: 93.6%; viability, T/C (second compound 0.0316 µM, first compound 0.316 µM): 96.3%; viability, T/C (second compound 0.0316 µM, first compound 1 µM): 85.3%; viability, T/C (second compound 0.0316 µM, first compound 3.16 µM): 85.1%; viability, T/C (second compound 0.0316 µM, first compound 10 µM): 75.7%; viability, T/C [3]: 92.6%; viability, T/C [4]: 92.5%; viability, T/C (second compound 0.1 µM, first compound 0.316 µM): 91.1%; viability, T/C (second compound 0.1 µM, first compound 1 µM): 91%; viability, T/C (second compound 0.1 µM, first compound 3.16 µM): 106%; viability, T/C (second compound 0.1 µM, first compound 10 µM): 88.3%; viability, T/C [5]: 138%; viability, T/C [6]: 100%; viability, T/C (second compound 0.316 µM, first compound 0.316 µM): 95.7%; viability, T/C (second compound 0.316 µM, first compound 1 µM): 111%; viability, T/C (second compound 0.316 µM, first compound 3.16 µM): 101%; viability, T/C (second compound 0.316 µM, first compound 10 µM): 89.5%; viability, T/C [7]: 95.5%; viability, T/C [8]: 87%; viability, T/C (second compound 1 µM, first compound 0.316 µM): 100%; viability, T/C (second compound 1 µM, first compound 1 µM): 105%; viability, T/C (second compound 1 µM, first compound 3.16 µM): 104%; viability, T/C (second compound 1 µM, first compound 10 µM): 114%; viability, T/C [9]: 111%; viability, T/C [10]: 93.9%; viability, T/C (second compound 3.16 µM, first compound 0.316 µM): 89.7%; viability, T/C (second compound 3.16 µM, first compound 1 µM): 106%; viability, T/C (second compound 3.16 µM, first compound 3.16 µM): 105%; viability, T/C (second compound 3.16 µM, first compound 10 µM): 93.3%; viability, T/C [11]: 89.4%; viability, T/C [12]: 108%; viability, T/C (second compound 10 µM, first compound 0.316 µM): 101%; viability, T/C (second compound 10 µM, first compound 1 µM): 102%; viability, T/C (second compound 10 µM, first compound 3.16 µM): 113%; viability, T/C (second compound 10 µM, first compound 10 µM): 90.5%
